{
  "source": "patent US20070036810A1",
  "about": "“Cyclic amp response element activator proteins and uses related thereto” (priority 2003, published 2007)",
  "assay_type_in_all_cases": "cell-based",
  "key": {"human IL-8 promoter": {"tested_on": "human IL-8 promoter", "assay": "pGL2-IL-8p-Luc reporter inducibility in HEK 293 cells", "settings": "HEK 293 cells treated with 50 ng/ml for 16 hours", "description": "A luciferase reporter controlled by a 1.5 kB IL-8 promoter containing fragment of human IL-8 promoter was tested for inducibility by known regulators of cytokine-mediated gene expression. pNF-κB-Luc (BD Biosciences) and pGL2-IL-8p-Luc reporters were co-transfected into HEK 293 cells with expression constructs encoding known activators of the NF-κB pathway, truncated MEKK (AA 360-672) (Stratagene) and a full length TRAF6 cDNA made according to conventional methods using a proprietary clone collection. Cells co-transfected with empty pCMV-Sport6 vector were either left untreated or treated with TNFα (50 ng/ml, for 16 hours). Luciferase activity was measured 48 hours post transfection. The pNF-κB-Luc reporter was used as a positive control."}, "[1]": {"tested_on": "GAL4 DNA binding sites (UAS-Luc, pFR-Luc reporter)", "assay": "GAL4 DNA binding domain fusion transactivation assay (pFR-Luc) in HEK 293 cells", "settings": "normalized to pCMV-BD vector", "excerpt": "To determine if CREAP proteins can act as a transcription activators, various regions of all 3 CREAP homologs (amino acids 300-650 of CREAP1, amino acids 296-694 of CREAP2 and amino acids 335-635 of CREAP3) were expressed as fusion proteins with the DNA binding domain of GAL4 and tested for the ability to activate expression of a reporter gene linked to GAL4 protein binding sequences (UAS-Luc (pFR-Luc reporter). Briefly, the indicated regions of CREAP1, CREAP2 and CREAP3 were amplified by PCR and subcloned in frame into pCMV-BD vector (Stratagene) encoding GAL4 DNA binding domain. Selected plasmids and empty vector (pCMV-SPORT6) were transfected into HEK 293 cells at 75 ng/well using Fugene6 transfection reagent (Roche) as described above. pFR-Luc reporter (Stratagene) encoding firefly luciferase gene driven by minimal promoter linked to 5 concatamerized GAL4 binding sites (UAS) was co-transfected at 100 ng/well. As a positive control, the reporter was also co-transfected with a plasmid encoding GAL4-CREB fusion protein (Stratagene) alone or in the presence of pFC-PKA an expression construct encoding catalytic subunit of protein kinase A (Stratagene) to activate the CREB kinase inducible activation domain. Fold induction was compared to the reporter's activity measured in the cells transfected with pCMV-BD an expression vector carrying GAL4 DNA binding domain only. […]"}, "GAL4-CREB fusion protein": {"tested_on": "GAL4-CREB fusion protein", "assay": "GAL4-CREB activation assay in HLR cell line", "settings": "HLR cell line with integrated pFR-Luc reporter, normalized to pCMV-BD vector", "description": "To determine if CREAP proteins can directly activate CREB1 protein, the expression constructs of CREAP1, CREAP2 and CREAP3 were transfected individually or with GAL4-CREB plasmid (Stratagene) into HLR cell line (Stratagene) carrying genomic DNA integrated copies of pFR-Luc reporter. Briefly, HLR cells were maintained per manufacturer's instructions. Selected plasmids and either empty vector (pCMV-BD) or GAL4-CREB plasmid were transfected at 75 ng/well using Fugene6 transfection reagent (Roche) as described above. As a positive control pFC-PKA an expression construct encoding catalytic subunit of protein kinase A (Stratagene) was also co-trasfected with GAL4-CREB. Fold of activation was compared to the reporter's activity measured in the cells transfected with empty vector.\nThe ability of full length CREAP1, CREAP2 and CREAP3 to induce the activity of GAL4-CREB fusion protein (Stratagene) was tested. The data presented are normalized to the value seen with pCMV-BD vector. […] Note the fold induction obtained with positive control is lower when compared to the data from Table 6 when all the plasmids including the reporter were transiently transfected."}, "[2]": {"tested_on": "secreted IL-8 protein from HeLa cells", "assay": "IL-8 Elisa assay in HeLa cells", "settings": "after transfection", "description": "HeLa cells are transfected with DNA samples selected from the group of sequence verified and confirmed hits at 100 ng per well in 96 well plates (Costar) using the protocol described above. DNA samples designated as co-activators are co-transfected at 25 ng per well. Empty vector pCMV-Sport6 is used as a negative control. 72 hours post-transfection IL-8 content is measured in the cell growth media in prediluted aliquots corresponding to 1 to 5 μl of conditioned growth media using an IL-8 Elisa kit (Sigma) following the provided protocol. As a positive control, growth media is collected from the cells transfected with empty vector and treated with IL-1β and TNFα (R&D Systems) at 5 ng/ml and 50 ng/ml respectively for 16 hours prior to collection of the growth media for the IL-8 assay."}},
  "data": [
    {"substance": "TNFα [reference compound]", "values": [
      {"measurement": "increase of IL-8 promoter-reporter activity", "setting": "human IL-8 promoter", "value": 4.7, "unit": "times"}
    ]},
    {"substance": "GAL4-CREB: plasmid encoding GAL4-CREB fusion protein (Stratagene) [reference compound]", "values": [
      {"measurement": "Fold Induction", "setting": "[1]", "value": 7.66},
      {"measurement": "Fold Induction", "setting": "GAL4-CREB fusion protein", "value": 75.55}
    ]},
    {"substance": "relA: subunit of NF-κB transcription factor, expression construct [reference compound]", "values": [
      {"measurement": "accumulation of secreted IL-8 protein", "setting": "[2]", "value": "induced small increases"}
    ]}
  ]
}
